In the experiment the target is T1, AbyV (Micromonospora maris, UniProt F4F6Q5).
T1 construct: N-terminal His6 tag (pOPINF::abyV), E. coli BL21(DE3)
As to the kind of experiment: titration of substrate into buffered AbyV solution. The experiment is classed as binding.

The source of these data is publication PMC10952897, “The Role of Cytochrome P450 AbyV in the Final Stages of Abyssomicin C Biosynthesis” (Angewandte Chemie (Weinheim an Der Bergstrasse, Germany), 2022).

Structures are written as SMILES.

T1 sequence (F4F6Q5 entry or part of it): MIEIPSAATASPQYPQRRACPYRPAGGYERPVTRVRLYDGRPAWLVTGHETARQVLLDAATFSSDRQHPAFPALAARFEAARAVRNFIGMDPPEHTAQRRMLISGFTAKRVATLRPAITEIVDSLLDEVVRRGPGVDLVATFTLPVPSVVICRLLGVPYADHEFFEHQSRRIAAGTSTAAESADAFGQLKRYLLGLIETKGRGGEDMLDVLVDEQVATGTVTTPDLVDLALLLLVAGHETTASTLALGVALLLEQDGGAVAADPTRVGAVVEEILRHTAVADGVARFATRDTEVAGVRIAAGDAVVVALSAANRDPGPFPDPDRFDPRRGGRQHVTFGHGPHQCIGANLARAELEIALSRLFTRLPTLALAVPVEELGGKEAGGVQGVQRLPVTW

The compound `C[C@@H]1C[C@H](C)C(=O)/C=C/[C@@H]2C=C[C@H](C)C[C@@]23OC(=O)C(=C3O)C1=O` (mixture of isomers) [compound 3, spirotetronate 3] displayed an equilibrium dissociation constant (Kd) of 34 ± 7 µM.
